In patent US8389524B2, “Tricyclic nitrogen containing compounds as antibacterial agents” (Glaxo Group Limited, priority 2007, dated 2013) one finds MIC data, which are given here for 5 compounds.

Where a name gives a salt, the structure may show the parent alone.

Assay [1] is described as follows: Antimicrobial Activity Assay: whole-cell antimicrobial activity by broth microdilution (CLSI M7-A7), MIC. The settings on record: against a strain of at least one of the organisms listed; tested in at least one exemplified salt or free base form. The format is cell-based, Gram-positive and Gram-negative organisms. On the procedure:
Whole-cell antimicrobial activity was determined by broth microdilution using the Clinical and Laboratory Standards Institute (CLSI) recommended procedure, Document M7-A7, “Methods for Dilution Susceptibility Tests for Bacteria that Grow Aerobically”. The compounds were tested in serial two-fold dilutions ranging from 0.016 to 16 mcg/ml.
The minimum inhibitory concentration (MIC) was determined as the lowest concentration of compound that inhibited visible growth. A mirror reader was used to assist in determining the MIC endpoint.
Compounds were evaluated against Gram-positive organisms, selected from Staphylococcus aureus, Streptococcus pneumoniae, Streptococcus pyogenes, Enterococcus faecalis and Enterococcus faecium.
In addition, compounds were evaluated against Gram-negative organisms selected from Haemophilus influenzae, Moraxella catarrhalis, Escherichia coli, Pseudomonas aeruginosa, Proteus mirabilis, Enterobacter cloacae, Enterobacter aerogenes, Klebsiella pneumoniae and Stenotrophomonas maltophilia.
In general terms: Broth dilution looks for growth in wells or tubes with falling amounts of substance.

Assay [2] relates to Mycobacterium tuberculosis H37Rv. Nature of the assay: Mycobacterium tuberculosis H37Rv Inhibition Assay (resazurin, MIC). The note with it: ATCC 25618 / H37Rv, 144 h, read-out: MIC value, H37Rv strain (ATCC25618), Middlebrook 7H9+ADC, six days at 37° C., resazurin fluorescence after 48 hours. Type of assay: cell-based. (In general: Alamar Blue is a resazurin reagent that responds to reducing activity.)

The term MIC denotes the lowest concentration found to suppress growth. `O=c1ccc2ccc(=O)n3c2n1C[C@H]3CN1CCC(NCc2cc3c(cn2)COC3)CC1` [Example 9, (1R)-1-({4-[(1,3-Dihydrofuro[3,4-c]pyridin-6-ylmethyl)amino]-1-piperidinyl}methyl)-1,2-dihydro-4H,1H-imidazo[1,2,3-ij]-1,8-naphthyridine-4,9-dione hydrochloride]: in assay [1], the MIC was no more than 4 µg/mL. On to `O=c1cnc2ccc(=O)n3c2n1C[C@H]3CN1CCC(NCc2ccc3c(c2)OCCO3)CC1` [Example 44, (1R)-1-({4-[(2,3-Dihydro-1,4-benzodioxin-6-ylmethyl)amino]-1-piperidinyl}methyl)-1,2-dihydro-3H,8H-2a,5,8a-triazaacenaphthylene-3,8-dione hydrochloride], for which the MIC in assay [2] is less than 2 µg/mL. The same measure, in the same setting: the figure for `O=c1ccc2ccc(=O)n3c2n1C[C@H]3CN1CCC(NCc2nc3cccc(F)c3[nH]2)CC1` [Example 46, (1R)-1-[(4-{[(4-Fluoro-1H-benzimidazol-2-yl)methyl]amino}-1-piperidinyl)methyl]-1,2-dihydro-4H,9H-imidazo[1,2,3-ij]-1,8-naphthyridine-4,9-dione dihydrochloride] is less than 2 µg/mL; for `O=c1ccc2ccc(=O)n3c2n1C[C@H]3CN1CCC(NCc2ccc3c(c2)OCCC3)CC1` [Example 50, (1R)-1-({4-[(3,4-Dihydro-2H-chromen-7-ylmethyl)amino]-1-piperidinyl}methyl)-1,2-dihydro-4H,9H-imidazo[1,2,3-ij]-1,8-naphthyridine-4,9-dione hydrochloride] it is less than 2 µg/mL; for `N#Cc1cc(CNC2CCN(C[C@@H]3Cn4c(=O)cnc5ccc(=O)n3c54)CC2)cc2c1OCCO2` [Example 56, 7-{[(1-{[(1R)-3,8-Dioxo-1,2-dihydro-3H,8H-2a,5,8a-triazaacenaphthylen-1-yl]methyl}-4-piperidinyl)amino]methyl}-2,3-dihydro-1,4-benzodioxin-5-carbonitrile hydrochloride] it is less than 2 µg/mL.
